The target in assay [1] is T1, C-C chemokine receptor type 3 (Homo sapiens) (UniProt P51677).
T1 sequence (whole entry): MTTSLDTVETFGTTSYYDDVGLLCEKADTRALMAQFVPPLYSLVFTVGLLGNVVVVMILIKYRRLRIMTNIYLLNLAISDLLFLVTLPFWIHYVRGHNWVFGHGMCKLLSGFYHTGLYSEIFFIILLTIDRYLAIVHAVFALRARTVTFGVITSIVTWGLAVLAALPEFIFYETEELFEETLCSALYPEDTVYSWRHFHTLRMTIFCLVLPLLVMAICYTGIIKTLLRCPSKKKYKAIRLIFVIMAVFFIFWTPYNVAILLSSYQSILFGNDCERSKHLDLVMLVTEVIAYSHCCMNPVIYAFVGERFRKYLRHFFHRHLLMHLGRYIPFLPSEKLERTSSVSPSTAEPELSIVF
The assay is described as follows: In vitro inhibitory activity of compound against C-C chemokine receptor type 3 at 5 uM using 150p M [125I]-labeled human eotaxin as radioligand.

The target in assay [2] is T2, C-C chemokine receptor type 3 (Homo sapiens, UniProt P51677).
T2 sequence (P51677 whole entry): T1 sequence (whole entry)
The assay is described as follows: In vitro inhibition if C-C chemokine receptor type 3 (CCR3) using 150p M [125I]-labeled human eotaxin.

The target of assay [3] is T2, C-C chemokine receptor type 3. The assay is described as follows: In vitro C-C chemokine receptor type 3 receptor activity of compound to inhibit eotaxin induced [Ca2+] mobilization in human Ca2+ mobilization assay. On the technique in general: Calcium flux is commonly read through the fluorescence of an indicator in the cells.
For assay [4], the target named is T1, C-C chemokine receptor type 3 (Homo sapiens). The assay is described as follows: In vitro inhibitory activity against C-C chemokine receptor type 3 at 10 uM using 150p M [125I]-labeled human eotaxin.
For assay [5] the target is unchanged. To be noted: 0.5 uM.
Description: In vitro inhibitory activity of compound against C-C chemokine receptor type 3 at 0.5 uM using 150p M [125I]-labeled human eotaxin as radioligand

As usually defined, the inhibition is how much of the control response was suppressed. The IC50 is the midpoint of a concentration-inhibition curve.

For `N#Cc1cccc(NC(=O)NCCCN2CCC(Cc3ccc(C(F)(F)F)cc3)CC2)c1`, in assay [1], the inhibition is 52%.
In the case of `COc1cccc(NC(=O)N2CCOC(CN3CCC(Cc4ccc(F)cc4)CC3)C2)c1` (racemic), the figures for the IC50 in assay [2] and in assay [3] were 50 nM and 220 nM, respectively.
Consider `Fc1ccc(CCCN2CC[C@@H]3[C@H](C2)c2cccc4c2N3CC4)cc1`, for which the IC50 in assay [2] came out at 500 nM. Besides, the inhibition in assay [4] stood at 100%.
In assay [4], `NCCN1CC[C@@H]2[C@H](C1)c1cccc3c1N2CC3` gave an inhibition of 15%.
`CC(C)(C)C(=O)NCCCCN1CC[C@@H]2[C@H](C1)c1cccc3c1N2CC3` registered an IC50 in assay [2] of 25600 nM. The molecule also displayed an inhibition in assay [4] of 45%.
Turning to `COc1cccc(NC(=O)N2CCCC(CN3CCC(Cc4ccc(F)cc4)CC3)C2)c1` (racemic), the IC50 in assay [2] is 50 nM; in assay [3] it was 820 nM.
On the same counts, the results for `COc1cccc(NC(=O)N2CCNC(CN3CCC(Cc4ccc(F)cc4)CC3)C2)c1` (racemic) are 30 nM and 140 nM.
For `NCCCN1CC[C@@H]2[C@H](C1)c1cccc3c1N2CC3`, in assay [4], the inhibition was 14%.
The molecule `CC[C@H](O)[C@H]1C[C@@H](Cc2ccccc2)CCN1CCCNC(=O)Nc1cccc(C(C)=O)c1` had an inhibition in assay [5] of 40%.
`Fc1ccc(CCN2CC[C@@H]3[C@H](C2)c2cccc4c2N3CC4)cc1` yielded an inhibition in assay [4] of 50%.
With `O=C(NCCCCN1CC[C@@H]2[C@H](C1)c1cccc3c1N2CC3)C1CCCCC1`, in assay [2], the IC50 turned out to be 11000 nM. This molecule also had an inhibition in assay [4] of 45%.
`O=C(NCCCCN1CC[C@@H]2[C@H](C1)c1cccc3c1N2CC3)C12CC3CC(CC(C3)C1)C2` yielded an IC50 in assay [2] of 6600 nM. The same molecule came in with an inhibition in assay [4] of 73%.
`O=C(NCCCN1CCC(Cc2ccc(F)cc2)CC1)NC12CC3CC(CC(C3)C1)C2` came in with a half-inhibitory concentration (IC50) in assay [2] of 90 nM.
The molecule `O=C(NCCCN1CC[C@@H]2[C@H](C1)c1cccc3c1N2CC3)Nc1ccc(I)cc1` yielded an IC50 in assay [2] of 1500 nM.
Same read-out and setting: to `CS(=O)(=O)c1ccc(NC(=O)NCCCN2CCC(Cc3ccc(F)cc3)CC2)cc1` belongs 70 nM.
Consider `N#Cc1ccc(NC(=O)NCCCN2CCC(Cc3ccc(F)cc3)CC2)cc1`, for which, in assay [2], the half-maximal inhibitory concentration (IC50) turned out to be 20 nM.
Same read-out and setting: to `CCCC[C@H](O)[C@H]1C[C@@H](Cc2ccccc2)CCN1CCCNC(=O)Nc1cccc(C(C)=O)c1` (stereo in doubt; form 1) belongs 1 nM; to `N#Cc1cccc(NC(=O)NCCCN2CCC(Cc3ccccc3)CC2)c1`, 200 nM; to `O=C(NCCCN1CC[C@@H]2[C@H](C1)c1cccc3c1N2CC3)Nc1ccc(C(F)(F)F)cc1`, 3700 nM.
Consider `CC(=O)c1ccc(NC(=O)NCCCN2CCC(Cc3ccc(F)cc3)CC2)cc1`, for which the IC50 in assay [2] is 200 nM.
On the same count and under the same terms, to `COc1cccc(NC(=O)NCCCN2CCC(Cc3ccccc3)CC2)c1` belongs 300 nM.
In turn, `CC(=O)c1cccc(NC(=O)NCCCN2CCC(Cc3ccc(F)cc3)CC2)c1` registered an IC50 in assay [2] of 10 nM.
On to `COc1cccc(NC(=O)N2CCN(C(=O)OC(C)(C)C)C(CN3CCC(Cc4ccc(F)cc4)CC3)C2)c1` (racemic), for which the IC50 in assay [2] turned out to be 40 nM; in assay [3], 200 nM.
`COc1ccc(C(=O)NCCCCN2CC[C@@H]3[C@H](C2)c2cccc4c2N3CC4)cc1`: it took 5100 nM to reach half-maximal inhibition in assay [2] (IC50).
With `N#Cc1cccc(NC(=O)NCCCCCN2CCC(Cc3ccccc3)CC2)c1`, the IC50 in assay [2] came out at 1200 nM.
Molecule `CCC[C@H]1C[C@@H](Cc2ccccc2)CCN1CCCNC(=O)Nc1cccc(C(C)=O)c1` (stereo in doubt) came in with an IC50 in assay [2] of 200 nM.
For `COc1cccc(NC(=O)NCCCN2CCC(Cc3ccc(F)cc3)CC2)c1`, in assay [2], the IC50 came out at 30 nM.
With `NCCCCN1CC[C@@H]2[C@H](C1)c1cccc3c1N2CC3`, the inhibition in assay [4] turned out to be 5%.
In turn, `COc1cccc(NC(=O)N2CCCCC2CN2CCC(Cc3ccc(F)cc3)CC2)c1` (racemic) came in with a concentration for half-maximal inhibition (IC50) in assay [2] of 170 nM.
On the same count and under the same terms, to `O=C(NCCCN1CCC(Cc2ccc(F)cc2)CC1)NC1CCCCC1` belongs 100 nM; to `O=C(NCCCN1CC[C@@H]2[C@H](C1)c1cccc3c1N2CC3)Nc1cccc(I)c1`, 1100 nM.
As to `O=C(NCCCN1CCC(Cc2ccc(F)cc2)CC1)Nc1ccc(C(F)(F)F)cc1`, the midpoint of inhibition in assay [2], the IC50, lay at 60 nM.
On the same count and under the same terms, to `CN(C)c1ccc(NC(=O)NCCCN2CC[C@@H]3[C@H](C2)c2cccc4c2N3CC4)cc1` belongs 4800 nM; to `O=C(NCCCCN1CCC(Cc2ccccc2)CC1)c1ccccc1`, 800 nM.
In assay [2], `COc1cccc(C(=O)NCCCCN2CCC(Cc3ccccc3)CC2)c1` gave an IC50 of 1200 nM.
`Fc1ccc(CN2CC[C@@H]3[C@H](C2)c2cccc4c2N3CC4)cc1`: the inhibition in assay [4] was 15%.
For `O=C(NCCCN1CCC(Cc2ccc(F)cc2)CC1)Nc1ccccc1C(F)(F)F`, the IC50 in assay [2] was 200 nM.

(Values after ChEMBL document CHEMBL1136024, “CCR3 antagonists: a potential new therapy for the treatment of asthma. Discovery and structure-activity relationships” (Bioorg Med Chem Lett, 2002).)
